Legend:
[1] = Liver retinoids of Lrat-/- mice 3 h after gavage with all-trans-RA; format: in vivo, mouse; conditions: 3 h post-gavage
From the text: Metabolism of Retinoids in Vivo. All animal experiments employed procedures approved by the University of Washington and conformed to recommendations of the American Veterinary Medical Association Panel on Euthanasia and recommendations of the Association of Research for Vision and Ophthalmology. Animals were maintained on a 12-h light and 12-h dark cycle. All manipulations were done under dim red or infrared light (>560 nm). Most experiments used 6-12-week-old mice. Lrat−/− mice were genotyped as described previously. Batten, et al. J. Biol. Chem. 279:10422-10432, 2004. Animals were maintained on a control chow diet up to 1 h prior to oral gavage. The appropriate amount of all-trans-ROL palmitate, all-trans-DROL, or all-trans-RA was dissolved in vegetable oil and administered by oral gavage 3 h prior to analysis.
Analysis of Retinoids. Liver (1 g) from retinoid gavaged or naive mice was homogenized in 2 ml of 137 mM NaCl, 2.7 mM KCl, and 10 mM sodium phosphate (pH 7.4) for 30 s using a Polytron homogenizer. 10 μl of 5 M NaOH was added to 3 ml of the ethanolic extract, and the nonpolar retinoids were extracted using 5 ml of hexane. The extraction was repeated, and the organic phases were combined, dried under vacuum, resuspended in hexane, and examined by normal phase HPLC using a normal phase column (Beckman Ultrasphere Si 5μ, 4.6×250 mm). […] The HPLC elution conditions were […], 100% buffer A for 40 min, 100% buffer B for 10 min, and 10 min equilibration in buffer A. The elution profiles of RA and DRA were monitored using an online diode array detector set at 350 and 290 nm, respectively. […] The measured area of absorbance was converted to picomoles based on a calibration of the HPLC columns using a known amount of all-trans-RA or all-trans-ROL (Sigma) and all-trans-DROL or all-trans-DRA (synthetic standards). The extraction efficiency was monitored by spiking a tissue sample with [^3H]RA (PerkinElmer Life Sciences) and monitoring the radioactivity recovered from the HPLC column. […]

[2] = biological target: T1, mouse RXR-α (Mus musculus, UniProt P28700); assay: RXRE (DR1) activation assay, HEK-293S cells with pRXRE-BLUE and RXR-α; format: cell-based; conditions: cotransfected with mouse RXR-α, 48 h
T1 construct: The RXR-α open reading frame was then subcloned into the pcDNA3.1 Directional TOPO vector; expressed in transfected cells; host or cells: N-acetylglucosaminyltransferase I-negative HEK-293S
T1 sequence (P28700 1-467): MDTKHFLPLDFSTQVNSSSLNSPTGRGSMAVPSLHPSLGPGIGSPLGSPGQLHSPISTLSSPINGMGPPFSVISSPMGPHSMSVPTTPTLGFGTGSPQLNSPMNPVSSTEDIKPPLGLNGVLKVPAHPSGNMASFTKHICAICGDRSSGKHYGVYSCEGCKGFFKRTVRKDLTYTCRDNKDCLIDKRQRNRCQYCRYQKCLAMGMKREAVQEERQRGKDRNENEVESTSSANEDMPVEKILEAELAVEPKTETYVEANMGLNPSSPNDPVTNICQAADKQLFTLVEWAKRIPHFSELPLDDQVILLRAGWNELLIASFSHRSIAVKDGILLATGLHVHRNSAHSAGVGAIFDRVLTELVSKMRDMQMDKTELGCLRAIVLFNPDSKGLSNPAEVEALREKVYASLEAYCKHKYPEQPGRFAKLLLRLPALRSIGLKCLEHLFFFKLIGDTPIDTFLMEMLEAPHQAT

CC1=C(/C=C/C(C)=C/C=C/C(C)CC(=O)O)C(C)(C)CCC1 (stereo not drawn) [all-trans-DRA, all-trans-13,14-dihydroretinoic acid]
Formation in liver after gavage with all-trans-RA [1]: no evidence
Activation of RXR-mediated transcription (DR1 elements) [2]: very weak RXR activator
